Tests used:
[1] = Plasma protein binding, rat plasma (rapid equilibrium dialysis); format: in vitro ADME; conditions: 37° C.
Protocol: The extent to which compounds of the invention bound to plasma proteins such as albumin and alpha-1 acid glycoprotein within human, rat or mouse plasma was determined by rapid equilibrium dialysis. Compounds were incubated at 5 μM for 4 hours at 37° C. Plasma protein binding for N,N-dimethyl-4-((6-oxopyrimidin-1(6H)-yl)methyl)benzamide in mouse plasma was 37.3%, in rat plasma was 14.8% and in human plasma was 30.6%.

Pharmacokinetics in mice = format: in vivo; conditions: male C57BI/6 mice
Protocol: N,N-dimethyl-4-((6-oxopyrimidin-1(6H)-yl)methyl)benzamide was administered to male C57BI/6 mice intravenously (2 mg/kg) or orally (10 mg/kg) by gavage. Whole blood diluted with water was prepared from these dosed animals over a time course up to 24 hours post dose to allow blood concentrations of drug to be measured by UPLC-MS/MS.

human Z A1AT = human Z A1AT (Homo sapiens, UniProt P01009, E366K); test: Circulating human Z A1AT levels in huZ mice; format: in vivo, huZ mouse; design: from tissue; host or cells: huZ (PiZZ) transgenic mice, line Z11.03, C57Bl/6 background; made in liver, measured in plasma; conditions: huZ mice, 5, 15 or 50 mg/kg twice a day by oral gavage, 14 days, plasma days 12-14
human Z A1AT, sequence (P01009 25-418 E366K): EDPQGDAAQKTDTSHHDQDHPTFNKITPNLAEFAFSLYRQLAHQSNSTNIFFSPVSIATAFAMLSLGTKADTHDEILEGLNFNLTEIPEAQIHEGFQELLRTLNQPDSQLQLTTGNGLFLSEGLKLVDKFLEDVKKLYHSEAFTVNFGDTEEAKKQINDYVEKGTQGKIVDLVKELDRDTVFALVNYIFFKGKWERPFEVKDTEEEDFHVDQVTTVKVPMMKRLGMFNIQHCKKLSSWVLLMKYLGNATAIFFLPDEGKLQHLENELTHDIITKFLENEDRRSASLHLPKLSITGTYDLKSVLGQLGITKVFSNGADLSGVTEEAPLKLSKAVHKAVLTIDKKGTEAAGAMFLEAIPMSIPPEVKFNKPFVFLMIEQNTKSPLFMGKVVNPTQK
Source text: The huZ mouse (also referred to as the PiZZ mouse) is a transgenic mouse strain that contains multiple copies of the Z variant of the human A1AT gene, developed by two separate groups Dycaico et al (Science (1988) 242:1409-12) and Carlson et al (J. Clin Invest (1989) 83:1183-90). PiZZ mice are on a C57Bl/6 background and express the human Z A1AT protein in liver tissue. The mice used in this study are from the progeny of Carlson and colleagues (transgenic line Z11.03). […]
HuZ mice (n=4/group; male or female) with basal human A1AT plasma levels of between 200-600 μg/ml were treated with either vehicle or N,N-dimethyl-4-((6-oxopyrimidin-1(6H)-yl)methyl)benzamide at 5, 15 or 50 mg/kg twice a day by oral gavage for 14 consecutive days. […] Human Z A1AT levels in mouse plasma samples were measured by ELISA (Human Serpin A1/α1-antitrypsin duo set ELISA, R& D Systems, DY1268) per manufacturer's instructions.
Briefly, a 96 well plate was coated with human A1AT capture antibody overnight at room temperature (1:180 dilution from stock, 100 μl final volume/well). […] After which, 50 μl stop solution (2M H2SO4) was added and optical density (OD) of each well was read at 450 nm with 570 nm blank subtracted from each well using a microplate reader. […]
The effect of N,N-dimethyl-4-((6-oxopyrimidin-1(6H)-yl)methyl)benzamide on circulating levels of human Z A1AT was assessed in a huZ mouse model. […]

Aqueous solubility = format: physicochemical; conditions: thermodynamic from solid; water, shaken for 5 minutes until clear solution
Protocol: Compounds of the invention were shaken for 5 minutes with increasing amounts of water until a clear solution had formed. Using this method the solubility of N,N-dimethyl-4-((6-oxopyrimidin-1(6H)-yl)methyl)benzamide was greater than 100 mg/ml.

[2] = system: panel of enzymes, ion channels and receptors; test: DiscoverX Safety47 panel; conditions: at 10 μM
Protocol: Compounds of the invention were tested against the DiscoverX Safety47™ panel. […] No target was inhibited by more than 25% at this concentration.

[3] = mouse, whole blood, iv 2 mg/kg or oral 10 mg/kg (route not stated), blood

## CN(C)C(=O)c1ccc(Cn2cnccc2=O)cc1 [N,N-dimethyl-4-((6-oxopyrimidin-1(6H)-yl)methyl)benzamide]
[1]
  fraction unbound at 4 h, 5 μM: 0.852
Pharmacokinetics in mice; oral 10 mg/kg vs iv 2 mg/kg
  Oral Bioavailability (F, AUCINF): 73%
Pharmacokinetics in mice; [3]
  AUC: 15600 ng·h/mL
  AUC(0-inf): 15600 ng·h/mL
Pharmacokinetics in mice; mouse, whole blood, iv 2 mg/kg or oral 10 mg/kg, read-out: Half-life in blood (t1/2) (converted)
  half-life: 1.9 h
Pharmacokinetics in mice; mouse, whole blood, iv 2 mg/kg or oral 10 mg/kg, read-out: Observed clearance
  clearance: 7.8 mL/min/kg
Pharmacokinetics in mice; mouse, whole blood, iv 2 mg/kg or oral 10 mg/kg, read-out: Volume of distribution (Vz)
  Vd: 1.3 L/kg
Pharmacokinetics in mice; mouse, whole blood, oral 10 mg/kg, blood
  Cmax: 9310 ng/mL
Human Z A1AT
  circulating human Z A1AT compared to baseline levels: stimulates secretion of human Z A1AT compared to baseline levels in huZ mice in a dose dependent manner
Aqueous solubility
  solubility at 5 min: > 100 mg/mL
[2]
  inhibition of any target of the Safety47 panel: ≤ 25%
